The text below walks through data of US9676766B2, “Triazolopyridines” (BAYER INTELLECTUAL PROPERTY GMBH, priority 2009, dated 2017).

SMILES strings stand for the structures.

For the assay, the target named is T1, human kinase Mps-1 (Homo sapiens, UniProt P33981).
T1 construct: N-terminally GST-tagged human full length recombinant Mps-1 kinase; purchased Invitrogen, Karslruhe, Germany PV4071
T1 sequence (P33981 1-857): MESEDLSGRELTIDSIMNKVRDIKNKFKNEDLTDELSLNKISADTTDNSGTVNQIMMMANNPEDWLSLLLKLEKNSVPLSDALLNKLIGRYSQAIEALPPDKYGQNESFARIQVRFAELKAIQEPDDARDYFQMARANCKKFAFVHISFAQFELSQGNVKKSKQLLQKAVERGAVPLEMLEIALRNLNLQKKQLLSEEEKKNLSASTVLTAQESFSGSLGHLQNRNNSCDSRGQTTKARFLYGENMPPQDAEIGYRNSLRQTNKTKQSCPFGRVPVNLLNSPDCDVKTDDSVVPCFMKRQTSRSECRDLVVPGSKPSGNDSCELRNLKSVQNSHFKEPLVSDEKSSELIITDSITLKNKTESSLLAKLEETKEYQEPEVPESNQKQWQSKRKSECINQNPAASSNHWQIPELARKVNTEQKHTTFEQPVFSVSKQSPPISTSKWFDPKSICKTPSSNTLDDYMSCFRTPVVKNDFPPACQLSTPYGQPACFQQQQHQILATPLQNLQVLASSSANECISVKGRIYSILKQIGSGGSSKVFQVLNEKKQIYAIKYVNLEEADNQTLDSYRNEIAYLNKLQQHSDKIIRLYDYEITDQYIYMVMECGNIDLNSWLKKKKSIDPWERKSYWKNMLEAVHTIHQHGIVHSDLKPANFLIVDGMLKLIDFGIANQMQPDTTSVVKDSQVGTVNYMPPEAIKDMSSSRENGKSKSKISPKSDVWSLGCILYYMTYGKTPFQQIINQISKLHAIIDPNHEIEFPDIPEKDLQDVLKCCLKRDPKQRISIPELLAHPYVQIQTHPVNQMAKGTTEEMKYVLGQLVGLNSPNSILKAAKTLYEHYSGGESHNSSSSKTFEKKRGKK
In words: Mps-1 Kinase Assay (TR-FRET). The format is biochemical. Particulars: N-terminally GST-tagged human full length recombinant Mps-1; 10 μM ATP; 1 μM biotinylated peptide substrate; 60 min at 22° C.; read-out: MPS1 Inhibition, IC50 in M.
For `O=C(Nc1ccc(-c2ccc3nc(Nc4ccccc4C(F)(F)F)nn3c2)cc1)C1CC1` [Example 5.2, N-[4-(2-{[2-(trifluoromethyl)phenyl]amino}[1,2,4]triazolo[1,5-a]pyridin-6-yl)phenyl]cyclopropanecarboxamide], the IC50 came to 180 nM.

Regarding `CN1CCN(C(=O)c2cccc(-c3ccc4nc(Nc5ccccc5C#N)nn4c3)c2)CC1` [Example 9.1, 2-[(6-{3-[(4-methylpiperazin-1-yl)carbonyl]phenyl}[1,2,4]triazolo[1,5-a]pyridin-2-yl)amino]benzonitrile], the half-maximal inhibitory concentration (IC50) is 59 nM.

With `N#Cc1ccccc1Nc1nc2ccc(-c3ccc(NC(=O)Nc4ccccc4)cc3)cn2n1` [Example 3.7, 1-(4-{2-[(2-cyanophenyl)amino][1,2,4]triazolo[1,5-a]pyridin-6-yl}phenyl)-3-phenylurea], the IC50 turned out to be 12 nM.

`COc1ccccc1Nc1nc2ccc(-c3cccc(NC(=O)c4ccccc4)c3)cn2n1` [Example 8.7, N-(3-{2-[(2-methoxyphenyl)amino][1,2,4]triazolo[1,5-a]pyridin-6-yl}phenyl)benzamide]: the half-inhibitory concentration (IC50) is 290 nM.

In the case of `CN1CCN(CC(=O)Nc2ccc(-c3ccc4nc(Nc5ccccc5C(F)(F)F)nn4c3)cc2)CC1` [Example 5.4, 2-(4-methylpiperazin-1-yl)-N-[4-(2-{[2-(trifluoromethyl)phenyl]amino}[1,2,4]triazolo[1,5-a]pyridin-6-yl)phenyl]acetamide], the IC50 is 2200 nM.

As to `COc1ccccc1Nc1nc2ccc(-c3ccc(NC(=O)C4CC4)cc3)cn2n1` [Example 4.3, N-(4-{2-[(2-methoxyphenyl)amino][1,2,4]triazolo[1,5-a]pyridin-6-yl}phenyl)cyclopropanecarboxamide], the half-inhibitory concentration (IC50) amounted to 39 nM.

Take `O=C(CC1CC1)Nc1ccc(-c2ccc3nc(Nc4ccccc4C(F)(F)F)nn3c2)cc1` [Example 5.3, 2-cyclopropyl-N-[4-(2-{[2-(trifluoromethyl)phenyl]amino}[1,2,4]triazolo[1,5-a]pyridin-6-yl)phenyl]acetamide]: the half-maximal inhibitory concentration (IC50) is 81 nM.

Take `COc1ccccc1Nc1nc2ccc(-c3cccc(NC(=O)NC4CC4)c3)cn2n1` [Example 8.9, 1-cyclopropyl-3-(3-{2-[(2-methoxyphenyl)amino][1,2,4]triazolo[1,5-a]pyridin-6-yl}phenyl)urea]: the IC50 was 84 nM.

On to `COc1ccccc1Nc1nc2ccc(-c3cccc(NS(=O)(=O)c4ccccc4)c3)cn2n1` [Example 8.6, N-(3-{2-[(2-methoxyphenyl)amino][1,2,4]triazolo[1,5-a]pyridin-6-yl}phenyl)benzenesulfonamide], for which the concentration for half-maximal inhibition (IC50) worked out at 360 nM.

In the case of `O=C(CN1CCCCC1)Nc1ccc(-c2ccc3nc(Nc4ccccc4C(F)(F)F)nn3c2)cc1` [Example 5.6, 2-(piperidin-1-yl)-N-[4-(2-{[2-(trifluoromethyl)phenyl]amino}[1,2,4]triazolo[1,5-a]pyridin-6-yl)phenyl]acetamide], the IC50 was found to be 880 nM.

As for `N#Cc1ccccc1Nc1nc2ccc(-c3ccc(NC(=O)Cc4ccc(C(F)(F)F)cc4)cc3)cn2n1` [Example 3.1, N-(4-{2-[(2-cyanophenyl)amino][1,2,4]triazolo[1,5-a]pyridin-6-yl}phenyl)-2-[4-(trifluoromethyl)phenyl]acetamide], the IC50 was found to be 8.2 nM.

On to `N#Cc1ccccc1Nc1nc2ccc(-c3cccc(C(=O)NC4CCCC4)c3)cn2n1` [Example 9.2, 3-{2-[(2-cyanophenyl)amino][1,2,4]triazolo[1,5-a]pyridin-6-yl}-N-cyclopentylbenzamide], for which the half-maximal inhibitory concentration (IC50) was 2.9 nM.

For `COc1ccccc1Nc1nc2ccc(-c3cccc(NC(=O)N4CCC(N(C)C)CC4)c3)cn2n1` [Example 8.11, 4-(dimethylamino)-N-(3-{2-[(2-methoxyphenyl)amino][1,2,4]triazolo[1,5-a]pyridin-6-yl}phenyl)piperidine-1-carboxamide], the IC50 was determined as 640 nM.

Regarding `O=C(CN1CCOCC1)Nc1ccc(-c2ccc3nc(Nc4ccccc4C(F)(F)F)nn3c2)cc1` [Example 5.5, 2-(morpholin-4-yl)-N-[4-(2-{[2-(trifluoromethyl)phenyl]amino}[1,2,4]triazolo[1,5-a]pyridin-6-yl)phenyl]acetamide], the IC50 was 3300 nM.
